Source: article PMC4774911, “Biochemical Screening of Five Protein Kinases from Plasmodium falciparum against 14,000 Cell-Active Compounds” (PLoS ONE, 2016)
Read-outs that look alike come from different tables or passages of the source.

Legend:
[1] = test system: P. falciparum 3D7 cells; details: cited from earlier work
[2] = biological target: T1, Plasmodium falciparum protein kinase 6 (PK6) (Plasmodium falciparum, UniProt Q8IDW1); test: biochemical; details: hits below 1 uM; read-out: PK6 IC50
T1 construct: 6-Histidine (N); made in house
T1 sequence (Q8IDW1 1-305): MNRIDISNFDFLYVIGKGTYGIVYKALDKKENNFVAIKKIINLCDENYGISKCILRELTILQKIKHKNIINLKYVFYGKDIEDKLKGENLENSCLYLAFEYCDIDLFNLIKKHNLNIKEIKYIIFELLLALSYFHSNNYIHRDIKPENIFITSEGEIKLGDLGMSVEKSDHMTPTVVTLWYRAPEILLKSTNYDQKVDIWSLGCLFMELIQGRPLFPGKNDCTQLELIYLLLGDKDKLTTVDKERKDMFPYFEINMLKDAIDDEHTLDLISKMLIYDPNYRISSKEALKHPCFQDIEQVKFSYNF

[3] = test system: P. falciparum DD2; parameters: method as in ChEMBL; details: ref ChEMBL; cited from earlier work
[4] = test system: 3D7 PFLDH; parameters: method as in ChEMBL; details: ref ChEMBL; cited from earlier work
[5] = test system: HepG2 cells; details: cited from earlier work
[6] = biological target: T2, Plasmodium falciparum calcium-dependent protein kinase 1 (CDPK1) (Plasmodium falciparum, UniProt P62344); test: CDPK1 Kinase-Glo ATP-consumption screen and dose-response; type: biochemical; details: hits below 1 uM; read-out: CDPK1 IC50
T2 construct: 6-Histidine (N); made in house
T2 sequence (P62344 whole entry): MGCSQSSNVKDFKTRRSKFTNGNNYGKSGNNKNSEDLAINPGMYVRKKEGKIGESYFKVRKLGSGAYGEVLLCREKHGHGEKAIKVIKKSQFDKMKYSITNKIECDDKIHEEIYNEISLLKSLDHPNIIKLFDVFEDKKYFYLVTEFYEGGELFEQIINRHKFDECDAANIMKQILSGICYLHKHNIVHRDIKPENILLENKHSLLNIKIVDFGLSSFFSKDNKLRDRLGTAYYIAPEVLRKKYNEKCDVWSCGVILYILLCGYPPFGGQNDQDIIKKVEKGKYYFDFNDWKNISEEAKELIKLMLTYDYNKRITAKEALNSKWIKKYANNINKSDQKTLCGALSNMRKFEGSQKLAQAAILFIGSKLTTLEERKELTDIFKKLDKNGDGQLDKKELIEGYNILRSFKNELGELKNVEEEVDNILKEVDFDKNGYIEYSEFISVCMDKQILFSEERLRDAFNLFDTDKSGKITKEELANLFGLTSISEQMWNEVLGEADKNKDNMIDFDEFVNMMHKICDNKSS
Method in brief: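 ATP consumption by recombinant P. falciparum CDPK4 or CDPK1 measured as residual ATP by Kinase-Glo luminescence, with 40 μM Syntide-2 substrate and 90 min incubation stopped with 5 mM EGTA. Single-point screen at 1 μM final, followed by dose-response; no-substrate wells as negative control.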

[7] = biological target: T3, Plasmodium falciparum calcium-dependent protein kinase 4 (CDPK4) (Plasmodium falciparum, UniProt Q8IBS5); test: CDPK4 Kinase-Glo ATP-consumption screen and dose-response; type: biochemical; details: hits below 1 uM
T3 construct: 6-Histidine (N); made in house
T3 sequence (Q8IBS5 1-528): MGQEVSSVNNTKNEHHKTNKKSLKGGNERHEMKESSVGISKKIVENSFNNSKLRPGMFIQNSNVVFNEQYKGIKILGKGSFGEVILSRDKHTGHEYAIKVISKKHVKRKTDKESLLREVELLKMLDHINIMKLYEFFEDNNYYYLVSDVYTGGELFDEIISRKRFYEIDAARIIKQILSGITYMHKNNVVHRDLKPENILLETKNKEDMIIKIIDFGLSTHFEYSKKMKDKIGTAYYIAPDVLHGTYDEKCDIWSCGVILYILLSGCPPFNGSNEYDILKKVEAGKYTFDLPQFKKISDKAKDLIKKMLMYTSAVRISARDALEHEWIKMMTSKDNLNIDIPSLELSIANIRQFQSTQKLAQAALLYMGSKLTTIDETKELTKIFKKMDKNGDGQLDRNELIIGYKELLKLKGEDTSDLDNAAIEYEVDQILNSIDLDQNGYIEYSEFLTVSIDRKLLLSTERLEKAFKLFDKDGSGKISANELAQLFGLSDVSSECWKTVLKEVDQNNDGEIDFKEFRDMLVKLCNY
Experimental: Biochemical assays were performed in white 384-well plates (Nunc). Liquid transfers were done manually with 8-channel pipets. Compounds were initially tested in a single-point screen (final concentration 1 μM). […] The catalytic activity of each kinase was considered proportional to ATP consumed, as determined from measurements of residual [ATP] with the luciferase-based reagent Kinase-Glo (Promega) following incubation. Luminescence (proportional to residual [ATP]) was measured on the plate readers FLx800 (BioTek Instruments, Winooski, VT, USA) and MicroBeta^2 (PerkinElmer, Waltham, MA, USA). Incubation times were chosen to ensure near-complete ATP depletion in the absence of inhibition, thus maximizing the difference in signal between inhibited and uninhibited wells.
40 μM Syntide-2 was used as a substrate; BKI-1 [14] was used as a control inhibitor, while reaction mixtures lacking Syntide-2 were included as an additional negative control. Incubation time was 90 minutes. Reactions were terminated by adding excess EGTA (5 mM), which sequesters Ca^2+ and halts calcium-dependent kinase activity.

[8] = biological target: PKG (Plasmodium falciparum, UniProt Q8I719); test: PKG IC50 (supplementary data file); type: biochemical
Sequence of PKG (Q8I719 whole entry): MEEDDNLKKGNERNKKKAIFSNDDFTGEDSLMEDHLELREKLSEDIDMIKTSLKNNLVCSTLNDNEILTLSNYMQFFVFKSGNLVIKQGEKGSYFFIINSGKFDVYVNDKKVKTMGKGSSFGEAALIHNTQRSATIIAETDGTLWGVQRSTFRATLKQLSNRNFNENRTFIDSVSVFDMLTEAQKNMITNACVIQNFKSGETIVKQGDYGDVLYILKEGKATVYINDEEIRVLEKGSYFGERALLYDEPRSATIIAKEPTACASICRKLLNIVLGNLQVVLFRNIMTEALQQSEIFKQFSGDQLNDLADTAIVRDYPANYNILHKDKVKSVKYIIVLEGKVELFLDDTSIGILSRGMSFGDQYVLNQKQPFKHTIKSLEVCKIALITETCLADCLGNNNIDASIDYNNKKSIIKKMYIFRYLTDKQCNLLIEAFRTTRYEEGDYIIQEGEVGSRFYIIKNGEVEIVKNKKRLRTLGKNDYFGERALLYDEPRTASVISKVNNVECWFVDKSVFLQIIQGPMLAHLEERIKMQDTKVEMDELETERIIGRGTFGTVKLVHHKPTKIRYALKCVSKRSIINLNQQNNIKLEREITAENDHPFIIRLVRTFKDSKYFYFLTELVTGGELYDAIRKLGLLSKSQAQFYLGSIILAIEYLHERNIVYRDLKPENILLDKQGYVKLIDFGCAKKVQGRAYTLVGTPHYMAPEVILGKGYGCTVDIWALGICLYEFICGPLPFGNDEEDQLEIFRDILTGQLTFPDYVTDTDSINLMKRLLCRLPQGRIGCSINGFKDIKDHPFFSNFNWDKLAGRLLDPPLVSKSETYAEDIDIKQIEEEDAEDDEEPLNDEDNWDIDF
Excerpt: Supplement pone.0149996.s003.xls, sheet "combined_1_sorted"

[9] = test system: DD2; parameters: method as in downloaded from ChEMBL; details: ref downloaded from ChEMBL; cited from earlier work
[10] = test system: 3D7 PFLDH; parameters: method as in downloaded from ChEMBL; details: ref downloaded from ChEMBL; cited from earlier work
[11] = 3D7, ref downloaded from ChEMBL

Row | Compound | PCT_IHB_3D7 ([1]; P. falciparum 3D7, ref ChEMBL) | pXC50_3D7 ([1]; P. falciparum 3D7, ref ChEMBL) | IC50 [2] | PCT_INHB_DD2 [3] | PCT_INHIB_3D7_PFLDH [4] | PCT_INHIB_HEPG2 ([5]; HepG2 cells, ref ChEMBL) | IC50 [6] | PCT_IHB_3D7 [1, 11] | pXC50_3D7 [1, 11] | IC50 [7] | IC50 [8] | PCT_INHB_DD2 [9] | PCT_INHIB_HEPG2 ([5]; HEPG2, ref downloaded from ChEMBL) | PCT_INHIB_3D7_PFLDH [10]
1 | Br.CC(=O)Nc1nc(C)c(-c2csc(Nc3ccc(Cl)cc3)n2)s1 [TCMDC-123995] | 96 | 6.589 | 95 nM | 93 | 0 | 14 |  |  |  |  |  |  |  | 
2 | CN1CCC(NC(=O)c2cccc(Nc3cc(Nc4cccc(Br)c4)ncn3)c2)CC1 [TCMDC-124773] | 94 | 5.997 | 602 nM | 6 | 1 | 25 |  |  |  |  |  |  |  | 
3 | CN(C(=O)c1cc2c(-c3cncnc3)cccc2[nH]1)c1ccccc1 [TCMDC-134637] | 92 | 6.202 |  | 99 | 0 | 1 | 271 nM |  |  |  |  |  |  | 
4 | Cc1cc(Nc2nc(Nc3cccc(Cl)c3)nc3ccccc23)n[nH]1 [TCMDC-134695] | 100 | 6.542 | 151 nM | 95 | 0 | 9 |  |  |  |  |  |  |  | 
5 | C(=N\Nc1nccc2sc(-c3ccccc3)cc12)/c1cccnc1 [TCMDC-135190] | 97 | 6.086 | 278 nM | 10 | 8 | 0 |  |  |  |  |  |  |  | 
6 | COc1ccc(Nc2ncc3c(-c4cccc(NC(=O)Cc5ccc(O)cc5)c4)c[nH]c3n2)cc1OC [TCMDC-135248] | 100 | 6.244 | 445 nM | 99 | 0 | 48 | 98 nM |  |  |  |  |  |  | 
7 | O=C(Nc1cccc(-c2nn3ccccc3c2-c2ccnc(Nc3ccc(NCCCN4CCOCC4)c(F)c3)n2)c1)c1c(F)cccc1F [TCMDC-135921] |  |  | 580 nM |  |  |  | 38 nM | 100 | 6.586 | 315 nM | 5.46 µM | 97 | 86 | 0
8 | Cl.NCc1ccc(Nc2nccc(Nc3ccc(-c4ccccc4)cc3)n2)cc1 [TCMDC-136004] | 100 | 6.05 |  | 98 | 0 | 47 | 375 nM |  |  |  |  |  |  | 
9 | N=C(N)c1ccc(Nc2nccc(Nc3nc(-c4ccccc4)cs3)n2)cc1.O=C(O)C(F)(F)F [TCMDC-136090] | 96 | 6.122 | 413 nM | 75 | 0 | 13 |  |  |  |  |  |  |  | 
10 | Cl.N=C(N)c1ccc(Nc2nc(Nc3ccc(-c4ccccc4)cc3)ncc2[N+](=O)[O-])cc1 [TCMDC-136145] | 99 | 6.095 | 164 nM | 35 | 0 | 11 |  |  |  |  |  |  |  | 
11 | O=C(Cc1ccc(Nc2nccc(Nc3cccc4[nH]ncc34)n2)cc1)Nc1ccc(C(F)(F)F)cc1 [TCMDC-136243] | 100 | 6.052 | 167 nM | 69 | 0 | 12 |  |  |  |  |  |  |  | 
12 | Cc1ccc(S(=O)(=O)Nc2ccc(Nc3nccc(Nc4cccc5[nH]ncc45)n3)cc2)cc1 [TCMDC-136297] | 90 | 6.019 | 823 nM | 5 | 6 | 57 |  |  |  |  |  |  |  | 
13 | C#CCNC(=O)c1ccc(-c2ccnc(Nc3cccc(CCCN4CCOCC4)c3)n2)s1 [TCMDC-136764] | 82 | 5.998 | 181 nM | 45 | 0 | 54 |  |  |  |  |  |  |  | 
14 | Cn1c(=O)c(-c2c(Cl)cccc2Cl)cc2cnc(Nc3ccc(N4CCOCC4)cc3)nc21 [TCMDC-137156] | 98 | 6.794 | 145 nM | 97 | 4 | 64 |  |  |  |  |  |  |  | 
15 | Cc1ccc(Nc2ccnc(Nc3ccc4c(c3)CS(=O)(=O)C4)n2)cc1O.Cl [TCMDC-138484] | 100 | 6.14 | 122 nM | 76 | 5 | 82 | 416 nM |  |  |  |  |  |  | 
16 | N#Cc1cnc(Nc2ccc(Oc3ccccc3)cc2)nc1Nc1cccc(S(N)(=O)=O)c1 [TCMDC-138613] | 96 | 6.256 | 201 nM | 86 | 3 | 74 |  |  |  |  |  |  |  | 
17 | CCN(CC)CCNC(=O)c1ccc(Nc2ncc([N+](=O)[O-])c(Nc3ccccc3OC)n2)cc1.Cl [TCMDC-138727] | 97 | 6.841 | 110 nM | 58 | 0 | 59 |  |  |  |  |  |  |  | 
18 | COc1cccc(-n2ncc3c(N/N=C/c4ccc(CN(C)CCN(C)C)cc4)ncnc32)c1 [TCMDC-138728] | 100 | 6.049 | 58 nM | 91 | 0 | 29 |  |  |  |  |  |  |  | 
19 | CN(c1ccc2c(c1)nc(NCc1ccccc1)n2C)c1ccnc(Nc2ccc(CS(C)(=O)=O)cc2)n1.Cl [TCMDC-138740] | 94 | 6.075 | 464 nM | 69 | 4 | 61 |  |  |  |  |  |  |  | 
20 | Cc1cc(F)ccc1-c1nc(Nc2ccncc2)c2ccn(C)c2n1 [TCMDC-141231] | 89 | 6.027 |  | 8 | 5 | 9 | 40 nM |  |  |  |  |  |  | 
21 | Cn1cnc2c(Nc3ccncc3)nc(-c3ccc4c(c3)OCO4)nc21.O=C(O)C(F)(F)F [TCMDC-141274] | 96 | 5.953 | 500 nM | 2 | 0 | 19 |  |  |  |  |  |  |  | 
22 | Cn1nc(-c2ccc(NC(=O)Nc3ccc4ccccc4c3)c(F)c2)c2cnc(NCCN3CCOCC3)nc21.O=C(O)C(F)(F)F [TCMDC-141561] | 93 | 5.992 | 860 nM | 3 | 1 | 62 |  |  |  |  |  |  |  | 
23 | Cc1ccc(Nc2nccc(Nc3ccc4c(c3)nc(Nc3cc(C(C)(C)C)on3)n4C)n2)cc1S(C)(=O)=O [TCMDC-141889] | 100 | 6.222 |  | 99 | 0 | 30 | 242 nM |  |  |  |  |  |  | 
24 | Cc1ccc(Nc2nc3cc(Nc4ccnc(Nc5cccc(CS(C)(=O)=O)c5)n4)ccc3o2)cc1.O=C(O)C(F)(F)F [TCMDC-141957] | 100 | 6.0348 | 229 nM | 81 | 4 | 55 |  |  |  |  |  |  |  | 
